Like-named read-outs stand apart in the source and are kept apart here.
Experiments:
Assay type in all cases: cell-based, human
[1] = test system: SKOV3 ovarian adenocarcinoma cell lines; assay: MTT cytotoxicity assay, calumenin-depleted SKOV3 cells; settings: Table 3; calumenin-depleted SKOV3 vs mock siRNA-transfected cells
Method: (§1) For a typical siRNA transfection, […] of the annealed siRNA duplex was mixed with 1.4 ml of Opti-MEM reagent (Invitrogen). In another tube, […] of Oligofectamine reagent (Invitrogen, Carlsbad, Calif.) was mixed with […] of Opti-MEM. The two solutions were combined and mixed gently by inversion and incubated for 20 min. at RT. The resulting solution was added to the cultured cells drop by drop in a 10 cm dish (cells are approximately 40-50% confluent). The next day the transfected cells were trypsinized and seeded in 6 or 96-well plates and further incubated for the indicated amount of time (assay dependent) before further analysis.
(§2) Cell survival was determined using the MTT cytotoxicity assay (see, e.g., Tokuyama et al. (2005) Anticancer Res. 25(1A): 17-22). Small interfering RNA transfected cells were seeded in triplicate into 96-well plates at 5×10^3 cells/well 48 hrs post-transfection. The cells were incubated for an additional 16 to 24 hrs before they were exposed to increasing concentrations of cytotoxic drugs. Doxorubicin (adriamycin), cisplatin, taxol, vinblastine, vincristine, and mitoxantrone were all purchased from Sigma Corp. (St. Louis, Mo.). Stocks were made as follows: 6 mM for doxorubicin, 1.1 mM for vincristine and vinblastine; 1.1 mM for taxol, 50 mM for cisplatin both in DMSO; and 0.97 mM mitoxantrone in ethanol. Appropriate dilutions were made in the respective media for each cell line. Following addition of drugs, incubation was continued for an additional 72 hrs. […] of MTT dye (5 mg/ml) were added into each well and the plate was further incubated at 37° C. for 4 hrs. The dye was solubilized with 10% Triton X-100, 0.01 N HCl and further incubated at 37° C. in the dark for 30 min. Cell viability was determined by measure of absorption at 570 nm in a Wallac multiwell plate reader (PerkinElmer, Inc., Boston, Mass.). The averages of triplicate wells were plotted using the Prism software (GraphPad Software, Inc., San Diego, Calif.).

MCF-7 cells [2] = assay: cells; settings: 72 hours post transfection
MCF-7 cells [3] = assay: cells; settings: for fold more sensitive to drug / fold lower viability to drug treatment as compared to control cells: calumenin-depleted MCF-7 cells; for fold more sensitive to drug: FIGS. 6A and 6B; for fold lower viability to drug treatment as compared to control cells: FIGS. 6C and 6D; for IC50: Homo sapiens, MCF7; for IC50 / IC10: MCF-7 cells, determined from MTT experiments
Method: as §1, §2

[4] = test system: MDA breast adenocarcinoma cell line; assay: MTT cytotoxicity assay, calumenin-depleted MDA cells; settings: Table 3; calumenin-depleted MDA vs mock siRNA-transfected cells; NC = no change occurred
Method: as §1, §2

MCF-7 cells [5] = assay: Clonogenic assay, siRNA-transfected MCF-7 cells; settings: FIG. 7; for cell survival, calumenin-directed siRNA and drug treatment as compared to drug treatment alone: MCF-7, IC10 and IC90 drug concentrations
Method: A clonogenic assay generated additional information concerning cell viability after drug-resistant cells were exposed to siRNA and chemotherapeutics. Briefly, transfected MCF-7 cells were seeded in triplicate into 24-well plates at 5×10^3 cells/well 48 hrs post-transfection. The cells were incubated for an additional 16-24 hrs before they were exposed to increasing concentrations of cytotoxic drugs. […] The cells were further incubated for an additional 7 days. At the end of the incubation, the cells were stained with addition of a 0.5% Methylene Blue solution in 50% ethanol for 15 min. at RT. The staining solution was then removed and plates were dried overnight. The plates were scanned and the stained colonies were solubilized in 0.1% SDS. The absorbance of the resulting solution was determined by spectrophotometry at 660 nm. […] The same results were found for cells treated with vincristine and calumenin-directed siRNA as compared to vincristine alone (FIG. 7).

[6] = Homo sapiens, MCF7 cells transfected with calumenin-directed siRNA (table: vector expressing calumenin-encoding RNA), read-out: EC50, Calumenin
[7] = Homo sapiens, mock vector transfected MCF7 cells, read-out: EC50, Control
[8] = Table 2, calumenin vs control transfected MCF7 cells
[9] = Table 3, calumenin-depleted MCF-7 vs mock siRNA-transfected cells
[10] = calumenin depleted MCF-7, IC50 drug treatment level

Row | SMILES | IS: increased sensitivity to the particular drug [1] [× IS] | EC50 (MCF-7 cells [2]; [6]) [nM] | EC50 (MCF-7 cells [2]; [7]) [nM] | IS: increased sensitivity to the particular drug (MCF-7 cells [3]; [8]) [× IS] | IS: increased sensitivity to the particular drug (MCF-7 cells [3]; [9]) [× IS] | fold more sensitive to drug (MCF-7 cells [3]) | IS: increased sensitivity to the particular drug [4] [× IS] | EC50 (MCF-7 cells [2]; MCF7 cells transfected with calumenin-directed siRNA (table: vector expressing calumenin-encoding RNA), read-out: EC50, Calumenin) [nM] | EC50 (MCF-7 cells [2]; mock vector transfected MCF7 cells, read-out: EC50, Control) [nM] | fold lower viability to drug treatment as compared to control cells (MCF-7 cells [3]) [fold] | sensitivity of calumenin silenced MCF-7 cells to drug (MCF-7 cells [5]) | cell survival, calumenin-directed siRNA and drug treatment as compared to drug treatment alone (MCF-7 cells [5]) | more sensitive to drug than cells transfected with control siRNA (MCF-7 cells [5]; [10]) [%] | more sensitive to drug than cells transfected with control siRNA (MCF-7 cells [5]; calumenin-directed siRNA transfected MCF-7, IC10 drug treatment level) [%] | IC50 (MCF-7 cells [3]) [nM] | IC10 (MCF-7 cells [3]) [nM] | more sensitive to drug than cells transfected with control siRNA (MCF-7 cells [5]; calumenin depleted MCF-7, IC90 drug treatment level) [%]
1 | COc1cccc2c1C(=O)c1c(O)c3c(c(O)c1C2=O)C[C@@](O)(C(=O)CO)C[C@@H]3O[C@H]1C[C@H](N)[C@H](O)[C@H](C)O1 [Doxorubicin] | 1.6 | 27.4 | 50 | 1.8 | 1.8 | two | 2.4 |  |  |  |  |  |  |  |  |  | 
2 | COc1cc([C@@H]2c3cc4c(cc3[C@@H](O[C@@H]3O[C@@H]5CO[C@@H](C)O[C@H]5[C@H](O)[C@H]3O)[C@H]3COC(=O)[C@H]23)OCO4)cc(OC)c1O [Etoposide] |  | 957 | 1200 | 1.3 |  |  |  |  |  |  |  |  |  |  |  |  | 
3 | N.N.[Cl][Pt][Cl] [Cisplatin] | 3.3 |  |  | 8.5 | 8.5 |  |  | 2240 | 19100 | 9 |  |  |  |  |  |  | 
4 | CC(=O)O[C@H]1C(=O)[C@@]2(C)[C@H]([C@H](OC(=O)c3ccccc3)[C@]3(O)C[C@H](OC(=O)[C@H](O)[C@@H](NC(=O)c4ccccc4)c4ccccc4)C(C)=C1C3(C)C)[C@]1(OC(C)=O)CO[C@@H]1C[C@@H]2O [Taxol] | 2.1 |  |  | 4130.2 | >10 |  | 3.8 |  |  |  | substantial increase | significantly decreased | 50 | 30 | 100 | 1 | 
5 | CC[C@]1(O)C[C@@H]2CN(CCc3c([nH]c4ccccc34)[C@@](C(=O)OC)(c3cc4c(cc3OC)N(C)[C@H]3[C@@](O)(C(=O)OC)[C@H](OC(C)=O)[C@]5(CC)C=CCN6CC[C@]43[C@@H]65)C2)C1 [Vinblastine] |  |  | 0.00149 | 656.9 |  |  |  |  |  |  |  |  |  |  |  |  | 
6 | O=C1c2c(O)ccc(O)c2C(=O)c2c(NCCNCCO)ccc(NCCNCCO)c21 [Mitoxantrone] | 1.6 | 1.38 | 6.04 | 4.4 | 4.4 | four | 6 |  |  |  |  |  |  |  |  |  | 
7 | CC[C@]1(O)C[C@H]2CN(CCc3c([nH]c4ccccc34)[C@@](C(=O)OC)(c3cc4c(cc3OC)N(C=O)[C@H]3[C@@](O)(C(=O)OC)[C@H](OC(C)=O)[C@]5(CC)C=CCN6CC[C@]43[C@@H]65)C2)C1 [Vincristine] | 4 | 0.00274 | 0.0471 | 17.2 | 17 |  | 3.8 |  |  | 17 | substantial increase | same results | 20 |  | 0.25 | 5000 | 33
8 | CC(=O)O[C@@]12CO[C@@H]1C[C@H](O)[C@@]1(C)C(=O)[C@H](O)C3=C(C)[C@@H](OC(=O)[C@H](O)[C@@H](NC(=O)OC(C)(C)C)c4ccccc4)C[C@@](O)([C@@H](OC(=O)c4ccccc4)[C@H]21)C3(C)C [Docetaxel] |  | 0.00463 | 0.00976 | 2.1 |  |  |  |  |  |  |  |  |  |  |  |  | 

Reference: patent US20070243548A1, “Calumenin-directed diagnostics and therapeutics for cancer and chemotherapeutic drug resistance” (priority 2006, published 2007)
